Measured values: patent publication US6664274B1, “Piperidine derivatives as serotonine reuptake inhibitors” (Eli Lilly and Company, priority 1999, dated 2003)
Counter-ions that a name gives are not always drawn.

melting point: 80 to 85 °C
Compound: OC(C1CCCCC1)C(CCN1CC=C(c2cccc3sccc23)CC1)c1ccccn1 (stereo not shown) (as salt: oxalate)
